Measured values published in ChEMBL document CHEMBL2073798, “P-Glycoprotein mediates the efflux of quinidine across the blood-brain barrier” (J Pharmacol Exp Ther, 1997).

Legend:
[1] = biological target: T1, ATP-dependent translocase ABCB1 (Mus musculus, UniProt P21447); assay: TP_TRANSPORTER: increase in brain concentration in mdr1a(-/-) mouse; type: functional, organism-based; settings: in vivo
[2] = biological target: T1, ATP-dependent translocase ABCB1; assay: TP_TRANSPORTER: increase in Quinidine concentration in brain in FVB mouse; type: functional, organism-based; settings: in vivo

T1 sequence (P21447 whole entry): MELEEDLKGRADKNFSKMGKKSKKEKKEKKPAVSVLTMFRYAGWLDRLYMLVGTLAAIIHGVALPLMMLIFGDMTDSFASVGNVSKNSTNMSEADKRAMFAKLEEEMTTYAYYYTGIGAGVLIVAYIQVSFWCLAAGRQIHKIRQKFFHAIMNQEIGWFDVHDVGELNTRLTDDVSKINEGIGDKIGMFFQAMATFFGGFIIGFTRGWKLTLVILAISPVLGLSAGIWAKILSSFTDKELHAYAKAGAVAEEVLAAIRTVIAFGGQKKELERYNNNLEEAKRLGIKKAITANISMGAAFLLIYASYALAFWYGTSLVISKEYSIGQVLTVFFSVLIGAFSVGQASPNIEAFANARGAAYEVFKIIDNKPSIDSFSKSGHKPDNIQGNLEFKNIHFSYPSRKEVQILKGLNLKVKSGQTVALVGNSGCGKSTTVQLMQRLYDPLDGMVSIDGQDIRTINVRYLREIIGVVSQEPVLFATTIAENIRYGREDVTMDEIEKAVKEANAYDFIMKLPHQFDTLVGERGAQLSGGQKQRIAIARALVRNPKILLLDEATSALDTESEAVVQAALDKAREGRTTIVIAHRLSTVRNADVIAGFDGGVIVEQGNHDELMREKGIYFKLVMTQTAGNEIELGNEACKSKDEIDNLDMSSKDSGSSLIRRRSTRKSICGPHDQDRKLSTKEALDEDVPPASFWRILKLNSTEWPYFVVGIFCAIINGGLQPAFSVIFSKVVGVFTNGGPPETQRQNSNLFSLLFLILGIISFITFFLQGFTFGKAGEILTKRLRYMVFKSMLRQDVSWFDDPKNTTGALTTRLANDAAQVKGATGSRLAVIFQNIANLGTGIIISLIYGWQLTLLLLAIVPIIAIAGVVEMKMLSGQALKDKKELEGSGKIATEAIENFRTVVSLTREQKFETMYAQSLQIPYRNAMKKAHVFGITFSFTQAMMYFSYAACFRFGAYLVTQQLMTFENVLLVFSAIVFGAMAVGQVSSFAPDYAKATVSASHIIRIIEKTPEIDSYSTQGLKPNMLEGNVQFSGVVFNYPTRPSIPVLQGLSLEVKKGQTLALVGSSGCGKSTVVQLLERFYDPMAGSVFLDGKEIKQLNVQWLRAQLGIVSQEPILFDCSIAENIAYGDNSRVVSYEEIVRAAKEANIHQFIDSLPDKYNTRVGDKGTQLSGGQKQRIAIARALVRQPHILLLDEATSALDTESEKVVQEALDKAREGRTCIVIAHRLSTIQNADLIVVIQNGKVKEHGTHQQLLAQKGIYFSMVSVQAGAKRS

Row | Compound | Activity [1] | Activity [2] [fold]
1 | C=C[C@H]1C[N@@]2CC[C@H]1C[C@@H]2[C@@H](O)c1ccnc2ccc(OC)cc12 [QUINIDINE] | substrate [+] | –
2 | C/C=C/C[C@@H](C)C(=O)[C@H]1C(=O)N[C@@H](C(C)C)C(=O)N(C)CC(=O)N(C)[C@@H](CC(C)C)C(=O)N[C@@H](C(C)C)C(=O)N(C)[C@@H](CC(C)C)C(=O)N[C@@H](C)C(=O)N[C@H](C)C(=O)N(C)[C@@H](CC(C)C)C(=O)N(C)[C@@H](CC(C)C)C(=O)N(C)[C@@H](C(C)C)C(=O)N1C [VALSPODAR] | – | 10.2
